# Reference: US20130053323A1, “METHODS AND USE RELATED TO HUMANIN AND HUMANIN-LIKE PEPTIDES” (priority 2009, published 2013)
# What was measured:
# [1] = system: fetal rat metatarsal bones; assay: Longitudinal growth of cultured fetal rat metatarsal bones; assay type: cell-based
# Method: (§1) The three middle metatarsal bone rudiments were dissected out from the paws of 20-day-old embryos (E20) (De Luca, Barnes et al. 2001). After dissection, bones were transferred to 24-well plates, one bone per well and cultured in 0.5 ml phenol-red MEM medium supplemented with 0.2% endotoxin-free fraction BSA, […] β-glycerophosphate, 0.05 mg/ml ascorbic acid and 100 μg/ml penicillin/streptomycin at 37° C. under 5% CO2 in humidified atmosphere. Medium was changed every 2-3 days. Images were captured at days 0, 2, 5, 7, 9 and 12 of culture, using a Hamamatsu C4742-95 digital camera mounted on a Nikon SMZ-U microscope. The Image-Pro plus™ (Media Cybernetics, USA) software was used to measure longitudinal growth. Metatarsal bone growth is expressed as a percentage of the length at the day of dissection (regarded as day 0). Treatment with CT (bortezomib), dexamethasone and/or HNG (S14G) was started 2-4 hours after dissection. All isolated bones were pooled and then randomly divided into the different treatment groups (4 to 6 bones per group). Each experiment was repeated at least 3 times.
# The data shown in FIG. 2A indicates novel growth promoting/protective effects of humanin analog HNG (S14G) on longitudinal bone growth in cultured fetal rat metatarsal bones. […] Briefly, fetal rat metatarsal bones were pre-treated with different concentrations (mentioned in the figure) of HNG (S14G), 30 min prior to addition of Dexa. […] (n=4-6 bones/group)
# CT (bortezomib) is a cytotoxic drug known to cause critical alterations in cells/tissues and disturb the cellular homeostasis. To test the effect of CT (bortezomib) on chondocytes and longitudinal bone growth, the established in vitro model of fetal rat metatarsal bones was used. These bones were collected as described in material and methods, cultured and treated with different concentrations of CT (bortezomib) under sterile conditions for up to 12 days. […] Apoptosis was analyzed in whole growth plate sections of 12-day cultured rat metatarsal bones (perichondrium excluded) by applying the TUNEL technique to detect DNA fragmentation.
# In an attempt to block and prevent the negative effects on growth after CT (bortezomib)-treatment, recently discovered humanin analog HNG (S14G) was tested in vitro in fetal rat metatarsal bones.
# [2] = system: chondrocytes of fetal rat metatarsal bones; assay: TUNEL apoptosis in growth plate sections of cultured rat metatarsal bones; assay type: cell-based; settings: bortezomib 1-1000 nM, 12-day culture, p<0.001 vs control
# Method: as §1
# CT (bortezomib) is a cytotoxic drug known to cause critical alterations in cells/tissues and disturb the cellular homeostasis. […] Apoptosis was analyzed in whole growth plate sections of 12-day cultured rat metatarsal bones (perichondrium excluded) by applying the TUNEL technique to detect DNA fragmentation.
# [3] = system: C57B and NMRI mice; assay: Bone length (X-ray) and body weight in normal C57B and NMRI mice; assay type: in vivo; settings: for bone length (femur, X-ray): bortezomib 1 mg/kg i.p., 1 cycle
# Method: (§2) Normal 5-week old male C57B and NMRI (B&K Universal, Sollentuna, Sweden) mice were housed one per cage in our animal care facility under a 12-h light, 12-h dark schedule with water ad libitum. After an adaptation period, each strain of mice were divided into two groups according to their body weight and were weight-matched into pairs to either receive 1 cycle intra peritoneal (i.p) injections of CT (bortezomib; Millennium Pharmaceuticals, USA, 1 mg/kg of body weight; 2 injections/week, 2 weeks treatment) or saline (vehicle). Body weight, food and general physical status was recorded daily during the first 20 days, and each vehicle-treated mouse was pair-fed to corresponding weight-matched CT (bortezomib)-treated mice. […] X-ray analyses where performed approximately every second week from start of treatment (represents time-point zero) to time of killing (day 56).
# FIG. 5 illustrates a schematic representation of the experimental design for the in vivo studies in C57B and NMRI mice. Both strains of mice were housed one per cage with water ad libitum. At start of treatment, mice were randomized into two groups based on their body weight and were weight-matched into pairs to either receive 1 cycle of intraperitoneal (i.p.) injected CT (bortezomib, 1 mg/kg) or vehicle at the indicated time-points; day 1, 4, 8 and 11. Each vehicle treated mouse was pair-fed to a corresponding weight-matched CT (bortezomib) treated mouse. Mice were killed (t) on day 13 (48 hrs post treatment) or on day 56 (45 days post treatment). X-ray analyses where performed approximately every second week from start of treatment (represents time-point zero) to time of killing (day 13 or 56). Bone lengths (mm) of femur were analyzed in vehicle- and CT (bortezomib) treated animals. Each group included 7-10 mice.
# Body weight was measured in both strains of mice every day until day 20 after start of treatment, and once per week thereafter. […] The vertical hatched line in FIGS. 6A and B indicates the last injection on day 11. In light of the growth inhibiting effect on metatarsal bones in vitro and the association of many other cytotoxic drugs, the effect on bone growth was investigated in vivo. Normal 5-week old male C57B and NMRI mice were weigh-matched into pairs to either receive 1 cycle intra peritoneal (i.p) injections of CT (bortezomib) at a clinical relevant dose (1mg/kg of body weight; 2 injections/week, 2 weeks treatment) or saline (vehicle). One group were killed 48 hrs after last injection (day 13) to study the direct effects on bone growth and the growth plate chondrocytes. The second group of animals were followed another 45 days without any treatment and then killed (day 56, 45 days post treatment) to look at the long-term effect and if there was any catch-up growth. […]
# [4] = system: growth plate chondrocytes; assay: TUNEL chondrocyte apoptosis in growth plate sections of C57B and NMRI mice; assay type: in vivo; settings: bortezomib 1 mg/kg i.p.; day 13 (48 hrs post treatment); each strain, p<0.001 vs vehicle
# Method: as §2
# Cell death is a well known and desirable phenomenon in the anti-cancer therapy. However, side-effects of the treatment in other tissues and cells is not uncommon. To further investigate the underlying mechanism(s) to the observed growth impairment in vivo we studied apoptosis (by the TUNEL method). Apoptosis was quantified in paraffin embedded growth plate sections of CT (bortezomib) and vehicle treated C57B and NMRI mice sacrificed on day 13 of the study (48 hrs post treatment).
# [5] = system: human growth plate cartilage; assay type: cell-based; settings: both, 24 h, 1000 nM
# Method: Biopsies from the proximal tibia and distal femur growth plates were collected in 5 pubertal children (3 boys and 2 girls) undergoing epiphyseal surgery for different medical conditions (4 patients with constitutional tall stature and 1 patient with leg length discrepancy). Biopsies were cut into thin slices under microscope and cultured for 24 hrs in the presence of 1000 nM CT (bortezomib). After fixation and sectioning, growth plates were analyzed using the TUNEL assay to determine the levels of chondrocyte apoptosis. […] CT (bortezomib) caused a significant increase in apoptosis (22.2±4.4% TUNEL positive cells vs. 6.3±1.8% in control; **p≦0.01, n=5 patients), which was mainly observed in stem-like and early proliferative chondrocytes. Our confirmation that human growth plate cartilage is also highly sensitive to bortezomib-induced cytotoxicity is of considerable clinical importance.
# [6] = system: apoptosis inducing factor (AIF) and BAX; assay: Western immunoblotting of pro-apoptotic proteins in C5.18 chondrocytic cell line; assay type: cell-based, rat; settings: 1000 nM bortezomib, 6hrs
# Method: Western immunoblotting to study protein expression was performed in the rat C5.18 chondrocytic cell line after treatment with 1000 nM CT (bortezomib) or 100 nM humanin analog HNG (S14G)/1000 nM CT (bortezomib (Btz)) for 6hrs. […] By adding humanin analog HNG (S14G), the up-regulation and activation of the two pro-apoptotic proteins were suppressed. […] As an internal control the house-keeping gene, GAPDH (35 kDa) was used. The experiment was repeated twice.
# [7] = system: neuroblastoma (SK-N-BE(2)) tumor xenografts; assay: Doubling time of tumors in neuroblastoma xenografts; assay type: in vivo, human; settings: bortezomib 0.8 mg/kg i.v. days 1, 4, 8, 11; p<0.05 vs vehicle
# [8] = system: growth plate
# From the text: The proteasome inhibitors (PIs), including bortezomib (Velcade™, PS-341), belong to another novel and promising group of CT that has past phase I clinical trials (Blaney, Bernstein et al. 2004) and are now under phase II clinical trials in pediatric cancers. However, secondary effects on normal bystander tissues of primary life saving modalities are so far unknown.
# [9] = system: FVB mice; assay: Dexa-induced growth retardation in FVB mice (tibia length, nose to anus length); assay type: in vivo; settings: Dexa 20 μg/mice/day s.c.
# Method: Four weeks old female mice FVB strain were obtained from Charles-River, Germany. The mice were kept in animal facility under a 12-h light, 12-h dark schedule with water ad libitum. After an adaptation period, mice were injected with Dexa dissolved in saline (20 μg/mice) subcutaneously in the neck every day for 1 week (short-term). Whereas, HNG (S14G) dissolved in saline (1 μg/mice) was injected intraperitoneally, 45 minutes prior to Dexa injection. The vehicle group received saline only. After one week of treatment/injections, animals were sacrificed and the back legs (femur and tibia) were collected. The skin and muscle from the tibia was removed and final length of tibia was measured by using electronic digital caliper as reported previously (Zaman, Menendez-Benito et al. 2007).
# In another study, four weeks old female mice FVB strain (Charles-river, Germany) were injected with Dexa dissolved in saline (20 μg/mice) subcutaneously in the neck every day for four week (long-term). Whereas, HNG (S14G) dissolved in saline (1 μg/mice) was injected intraperitoneally, 45 minutes prior to Dexa injection. The vehicle group received saline only. The total body length (nose to anus) was measured (centimeters, cm) manually (blinded, the cadges were coded on the day of measurment), every week. After 4 weeks of treatment, animals were sacrificed by inhalation of CO2, tissue samples (both left and right leg) were collected for subsequent analysis.
# HNG injections were given […] prior to Dexa injections. […] After this, we next asked whether HNG (S14G) has any protective effects on bone growth after long-term treatment with Dexa (FIG. 3A). To investigate this, we treated mice for 4 weeks (group 2) with Dexa (20 μg/mice/day) and HNG (1 μg/mice/day). […] In FIG. 3B, total growth of the animals, nose to anus length (cm, manually) was analyzed in vehicle, Dexa, HNG (S14G) and Dexa/HNG (S14G) treated animals after four weeks of injections. **p<0.01 by 1-way ANOVA analyses, n=9-10/animals/group).
# [10] = system: growth plate cartilage; assay: Growth plate histology, resting and proliferating chondrocyte zone (R+P); assay type: in vivo, mice; settings: Dexa alone, four weeks
# Method: Four weeks old mice (female, FVB) were injected with Dexa dissolved in saline ([…]) subcutaneously in the neck every day for four week. Whereas, HNG (S14G) dissolved in saline (1 μg/mice) was injected intra-peritoneally, 45 minutes prior to the Dexa injection for four weeks, for details see materials and methods. The femur and tibia bones were dissected out and fixed in 4% formalin for 24 hrs, followed by decalcification in 10% EDTA and embedded in paraffin blocks. Five-micrometer-thick sections were prepared from these paraffin blocks. The sections were prepared from the tibial growth plate and stained with Van Gieson. Digital images of stained sections were collected using a Nikon Eclipse E800 microscope (Nikon Corp., Tokyo, Japan) equipped with an Olympus DP70 digital camera (Olympus Sverige AB, Solna, Sweden).
# Since a positive effect of HNG (S14G) on bone growth was identified, different zones of chondrocytes were analyzed (resting, proliferative and hypertrophic) in growth plate cartilage, to identify visible changes in these zones. […] These micropgraphas also explain the longitudinal bone growth promoting effects by HNG (S14G) alone or in combination with Dexa.
# [11] = system: male Wistar rats; settings: cited from earlier work
compound,measurement,setting,value
"CC(C)C[C@H](NC(=O)[C@H](Cc1ccccc1)NC(=O)c1cnccn1)B(O)O [CT (bortezomib), bortezomib]",longitudinal bone growth,"[1]; bortezomib 50 nM or higher, from day 2 throughout 12 days, p<0.001 vs control",Significant growth suppression
same,longitudinal bone growth,"[1]; bortezomib 1000 nM for only 24 hrs, then control medium up to 12 days",permanent growth arrest
same,longitudinal bone growth,"[1]; bortezomib, all concentrations tested (25-100 nM)",completley abolished growth
same,chondrocyte apoptosis (TUNEL),[2],significant dose-dependent increase in chondrocyte apoptosis
same,body weight,"[3]; C57BL mice, bortezomib 1 mg/kg i.p. days 1, 4, 8, 11, vs vehicle",no difference in body weight
same,body weight,"[3]; NMRI mice, bortezomib 1 mg/kg i.p. days 1, 4, 8, 11, day 36 until day 56, vs vehicle",significant difference in body weight
same,"bone length (femur, X-ray)","[3]; after 45 day follow-up (day 56), p<0.001",still significantly shorter
same,"bone length (femur, X-ray)","[3]; day 13, both strains, p<0.001 vs vehicle",significantly shorter
same,chondrocyte apoptosis (TUNEL),[4],significant induction of chondrocyte apoptosis
same,TUNEL positive cells,[5],22.2±4.4%
same,expression of pro-apoptotic proteins AIF and BAX,[6],induce up-regulation and activation
same,tumor doubling time,[7],significant reduction in tumor doubling time
same,effect on growth plate and growth,[8],permanent growth retardation and chondrocyte cell death
"C[C@@H]1C[C@H]2[C@@H]3CCC4=CC(=O)C=C[C@]4(C)[C@@]3(F)[C@@H](O)C[C@]2(C)[C@@]1(O)C(=O)CO [Dexa, Dexamethasone, reference compound]",longitudinal bone growth,[1]; Dexa 1 μM alone,induced growth retardation
same,growth (tibia length),[9]; 1 week,significantly induced growth retardation
same,growth (nose to anus length),"[9]; 4 weeks, vs vehicle",significantly growth retarded
same,size of resting and proliferating chondrocyte zone (R+P),[10],appears smaller
CC(C)C[C@H](NC(=O)[C@H](CC(C)C)NC(=O)[C@H](CC(C)C)NC(=O)OCc1ccccc1)B(O)O [MG262],effect on growth plate and growth,[8],permanent growth retardation and chondrocyte cell death
COc1cccc2c1C(=O)c1c(O)c3c(c(O)c1C2=O)C[C@@](O)(C(=O)CO)C[C@@H]3O[C@H]1C[C@H](N)[C@H](O)[C@H](C)O1 [doxorubicin],reduction in tibia length,[11],18%
CN(Cc1cnc2nc(N)nc(N)c2n1)c1ccc(C(=O)N[C@@H](CCC(=O)O)C(=O)O)cc1 [methotrexate],reduction in tibia length,[11],5%
Colivelin,protection against Dexa-induced bone growth retardation,[1]; colivelin 100 μM combined with Dexa 1 μM,some protective effect against Dexa-induced bone growth retardation
same,longitudinal growth,"[1]; colivelin alone, cultured for 12 days",some stimulatory effect on longitudinal growth
